# Experimental data taken from BindingDB's records for PubMed 34998058 (Central South University, 2022).
# Legend:
# [1] = Inhibition of P-gp in human K562 cells assessed as adriamycin IC50 at 6 ug/ml
# [2] = Inhibition of P-gp in human K562/A02 cells assessed as adriamycin IC50 at 6 ug/ml
# [3] = Inhibition of P-gp in human K562/A02 cells assessed as adriamycin IC50 at 2 ug/ml
# [4] = Inhibition of P-gp in human K562 cells assessed as adriamycin IC50 at 2 ug/ml
# [5] = Inhibition of P-gp in human K562 cells assessed as adriamycin IC50 at 8 ug/ml
# [6] = Inhibition of P-gp in human K562/A02 cells assessed as adriamycin IC50 at 10 ug/ml
# [7] = Inhibition of P-gp in human K562 cells assessed as adriamycin IC50 at 10 ug/ml
# [8] = Inhibition of P-gp in human K562 cells assessed as adriamycin IC50 at 4 ug/ml
# [9] = Inhibition of P-gp in human K562/A02 cells assessed as adriamycin IC50 at 4 ug/ml
# [10] = Inhibition of P-gp in human K562/A02 cells assessed as adriamycin IC50 at 8 ug/ml
# Maltase-glucoamylase = Maltase-glucoamylase (Homo sapiens, UniProt O43451); assay: Inhibition of alpha-glucosidase (unknown origin)
# Chain of Maltase-glucoamylase (O43451 whole entry): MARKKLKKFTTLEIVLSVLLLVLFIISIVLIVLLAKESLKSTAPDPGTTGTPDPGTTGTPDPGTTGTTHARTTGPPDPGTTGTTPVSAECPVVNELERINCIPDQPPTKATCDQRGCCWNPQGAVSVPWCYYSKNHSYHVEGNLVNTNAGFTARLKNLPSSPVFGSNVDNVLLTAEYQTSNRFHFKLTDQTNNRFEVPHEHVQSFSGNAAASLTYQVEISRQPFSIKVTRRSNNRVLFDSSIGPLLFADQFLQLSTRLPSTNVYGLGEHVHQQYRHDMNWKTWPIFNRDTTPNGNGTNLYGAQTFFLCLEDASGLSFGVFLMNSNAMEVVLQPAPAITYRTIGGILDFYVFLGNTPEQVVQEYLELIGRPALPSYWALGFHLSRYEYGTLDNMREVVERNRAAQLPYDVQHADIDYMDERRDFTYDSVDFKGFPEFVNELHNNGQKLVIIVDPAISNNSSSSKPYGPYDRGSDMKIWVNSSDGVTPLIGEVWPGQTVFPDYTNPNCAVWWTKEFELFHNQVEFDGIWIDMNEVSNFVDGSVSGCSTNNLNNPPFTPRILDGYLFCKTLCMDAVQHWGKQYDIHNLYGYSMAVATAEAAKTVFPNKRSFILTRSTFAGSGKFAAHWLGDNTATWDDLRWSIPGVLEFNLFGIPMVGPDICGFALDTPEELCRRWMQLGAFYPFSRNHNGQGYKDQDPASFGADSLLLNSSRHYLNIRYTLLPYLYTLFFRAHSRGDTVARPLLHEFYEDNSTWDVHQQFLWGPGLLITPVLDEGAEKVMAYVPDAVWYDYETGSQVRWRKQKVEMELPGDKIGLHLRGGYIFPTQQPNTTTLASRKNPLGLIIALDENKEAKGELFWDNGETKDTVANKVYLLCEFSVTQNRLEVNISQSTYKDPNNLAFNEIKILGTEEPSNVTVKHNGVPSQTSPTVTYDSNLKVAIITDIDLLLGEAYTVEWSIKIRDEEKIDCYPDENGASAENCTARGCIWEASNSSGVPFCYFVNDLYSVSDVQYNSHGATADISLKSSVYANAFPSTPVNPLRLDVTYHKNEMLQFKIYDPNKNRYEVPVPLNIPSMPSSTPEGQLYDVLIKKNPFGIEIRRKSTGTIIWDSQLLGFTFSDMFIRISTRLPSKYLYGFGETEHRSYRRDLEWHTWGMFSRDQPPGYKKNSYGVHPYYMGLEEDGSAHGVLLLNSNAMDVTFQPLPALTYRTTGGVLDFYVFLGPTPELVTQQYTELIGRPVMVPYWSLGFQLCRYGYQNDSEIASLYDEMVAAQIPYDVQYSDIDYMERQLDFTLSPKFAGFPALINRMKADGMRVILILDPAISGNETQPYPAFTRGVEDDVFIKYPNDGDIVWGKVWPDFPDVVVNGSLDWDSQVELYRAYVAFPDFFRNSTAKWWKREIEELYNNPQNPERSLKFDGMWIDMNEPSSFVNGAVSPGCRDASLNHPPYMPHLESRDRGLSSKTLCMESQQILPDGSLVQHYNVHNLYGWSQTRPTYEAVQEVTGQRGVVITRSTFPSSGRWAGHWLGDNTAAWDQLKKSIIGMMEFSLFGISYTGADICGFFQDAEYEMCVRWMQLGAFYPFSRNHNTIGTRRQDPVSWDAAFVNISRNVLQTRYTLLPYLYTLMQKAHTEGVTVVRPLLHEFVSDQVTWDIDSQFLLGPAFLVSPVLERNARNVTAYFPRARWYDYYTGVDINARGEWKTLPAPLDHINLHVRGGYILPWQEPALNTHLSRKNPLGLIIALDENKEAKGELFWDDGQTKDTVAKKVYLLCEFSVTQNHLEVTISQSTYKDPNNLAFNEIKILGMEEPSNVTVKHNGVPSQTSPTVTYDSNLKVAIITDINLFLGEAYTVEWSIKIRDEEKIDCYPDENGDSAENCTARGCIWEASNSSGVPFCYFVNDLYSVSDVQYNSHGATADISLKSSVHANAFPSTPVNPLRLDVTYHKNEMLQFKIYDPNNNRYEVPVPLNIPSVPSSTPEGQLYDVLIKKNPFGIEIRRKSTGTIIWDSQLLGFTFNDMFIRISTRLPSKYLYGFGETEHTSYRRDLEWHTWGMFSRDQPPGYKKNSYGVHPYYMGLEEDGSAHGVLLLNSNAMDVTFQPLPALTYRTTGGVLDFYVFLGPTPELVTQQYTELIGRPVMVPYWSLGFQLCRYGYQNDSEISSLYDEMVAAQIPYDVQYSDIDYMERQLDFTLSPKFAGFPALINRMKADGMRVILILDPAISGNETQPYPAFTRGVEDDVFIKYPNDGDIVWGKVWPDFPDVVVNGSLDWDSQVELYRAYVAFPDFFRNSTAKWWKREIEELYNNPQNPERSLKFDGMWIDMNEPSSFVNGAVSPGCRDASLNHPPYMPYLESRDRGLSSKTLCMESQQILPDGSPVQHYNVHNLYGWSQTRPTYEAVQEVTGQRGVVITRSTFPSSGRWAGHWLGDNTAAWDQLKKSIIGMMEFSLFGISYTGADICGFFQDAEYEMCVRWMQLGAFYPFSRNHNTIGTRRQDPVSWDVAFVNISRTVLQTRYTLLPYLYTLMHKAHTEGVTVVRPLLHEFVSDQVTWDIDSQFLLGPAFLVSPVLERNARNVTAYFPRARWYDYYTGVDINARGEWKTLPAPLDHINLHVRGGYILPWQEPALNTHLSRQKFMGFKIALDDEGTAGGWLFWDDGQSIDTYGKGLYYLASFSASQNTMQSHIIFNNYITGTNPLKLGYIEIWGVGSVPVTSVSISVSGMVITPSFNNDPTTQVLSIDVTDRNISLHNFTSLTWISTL
structure (smiles),measurement,setting,value
Cc1ccc2[nH]c(=O)c(C)nc2c1,IC50,[1],0.516 µM
same,IC50,[2],10.5 µM
same,IC50,[3],20.1 µM
same,IC50,[4],0.803 µM
same,IC50,[5],0.746 µM
same,IC50,[6],7.8 µM
same,IC50,[7],0.688 µM
same,IC50,[8],0.746 µM
same,IC50,[9],15 µM
same,IC50,[10],8.95 µM
Cc1nc2cc(F)ccc2[nH]c1=O,IC50,[1],0.841 µM
same,IC50,[2],7.52 µM
same,IC50,[3],12.9 µM
same,IC50,[4],0.785 µM
same,IC50,[5],0.729 µM
same,IC50,[6],6.28 µM
same,IC50,[7],0.561 µM
same,IC50,[8],0.673 µM
same,IC50,[9],9.03 µM
same,IC50,[10],5.78 µM
COc1ccc(C(=O)Nc2cccc(C(=O)/C=C3/Nc4ccccc4NC3=O)c2)cc1,IC50,Maltase-glucoamylase,166 µM
O=C(/C=C/c1ccccc1)/C=C1/Nc2ccccc2NC1=O,IC50,Maltase-glucoamylase,40.1 µM
COc1ccc(C2SCC(=O)N2c2ccc3nc(Cc4ccc(O)cc4)c(=O)[nH]c3c2)cc1 (centres undefined),IC50,Maltase-glucoamylase,276 µM
CC(C)c1nc2ccc(N3C(=O)CSC3c3ccc([N+](=O)[O-])cc3)cc2[nH]c1=O (centres undefined),IC50,Maltase-glucoamylase,301 µM
O=c1[nH]c2ccccc2nc1N/N=C/c1cccs1,IC50,Maltase-glucoamylase,9.99 µM
COc1cccc(/C=N/Nc2nc3ccccc3[nH]c2=O)c1,IC50,Maltase-glucoamylase,13.9 µM
O=c1[nH]c2ccccc2n2c(-c3ccc([N+](=O)[O-])cc3[N+](=O)[O-])ccc12,IC50,Maltase-glucoamylase,23 µM
O=c1[nH]c2ccccc2n2c(-c3ccc(O)cc3O)ccc12,IC50,Maltase-glucoamylase,12.9 µM
O=c1[nH]c2ccccc2n2c(-c3ccc(Cl)c(Cl)c3)ccc12,IC50,Maltase-glucoamylase,13 µM
Cc1ccc(NC(=O)Cn2c(=O)c(C)nc3ccccc32)c([N+](=O)[O-])c1,IC50,Maltase-glucoamylase,83.8 µM
Cc1nc2ccccc2n(CC(=O)N/N=C/c2ccc(OCCn3cc(CN4CCOCC4)nn3)cc2)c1=O,IC50,Maltase-glucoamylase,41.3 µM
Cc1nc2ccccc2n(CC(=O)N/N=C/c2ccc(OCCn3cc(CN4CCCCC4)nn3)cc2)c1=O,IC50,Maltase-glucoamylase,42.2 µM
Cc1nc2ccccc2n(CC(=O)N/N=C/c2ccc(OCCn3cc(CN4CCCC4)nn3)cc2)c1=O,IC50,Maltase-glucoamylase,45.8 µM
Cc1ccc(-n2cc(COc3ccc(/C=N/NC(=O)Cn4c(=O)c(C)nc5ccccc54)cc3)nn2)cc1,IC50,Maltase-glucoamylase,48.2 µM
